# Results as given in patent publication US20230174660A1, “USE OF A MULTIMERIC ANTI-DR5 BINDING MOLECULE IN COMBINATION WITH A CANCER THERAPY FOR TREATING CANCER” (IGM Biosciences, Inc., priority 2020, published 2023).
# Where two headings read alike, the source gives them in different places.
# How the values were obtained:
# [1] = system: primary human hepatocytes; test: Cell Titer Glo viability, Mab A + chemotherapeutic agent, Bliss synergy (Example 1); assay type: cell-based; conditions: combination with anti-DR5 IgM Mab A, Liver, 72 hours
# HT55 = test: as above; assay type: cell-based; conditions: combination with anti-DR5 IgM Mab A; HT55, Colorectal Carcinoma; 72 hours
# NCIH460 = test: as above; assay type: cell-based; conditions: combination with anti-DR5 IgM Mab A; NCIH460, Lung, Non-small cell; 72 hours
# LOUNH91 = test: as above; assay type: cell-based; conditions: combination with anti-DR5 IgM Mab A; LOUNH91, Lung Squamous cell carcinoma; 72 hours
# MV411 = test: as above; assay type: cell-based; conditions: combination with anti-DR5 IgM Mab A; MV411, Blood (Leukemia) Acute myelogenous leukemia; 72 hours
# MOLM13 = test: as above; assay type: cell-based; conditions: combination with anti-DR5 IgM Mab A; MOLM13, Blood (Leukemia) Acute myelogenous leukemia; 72 hours
# BXPC3 = test: as above; assay type: cell-based; conditions: combination with anti-DR5 IgM Mab A; BXPC3, Pancreas adenocarcinoma; 72 hours
# SNU5 = test: as above; assay type: cell-based; conditions: combination with anti-DR5 IgM Mab A; SNU5, Gastric Adenocarcinoma; 72 hours
# UMUC3 = test: as above; assay type: cell-based; conditions: combination with anti-DR5 IgM Mab A; UMUC3, Bladder Transitional Cell Carcinoma; 72 hours
# HT1080 = test: as above; assay type: cell-based; conditions: combination with anti-DR5 IgM Mab A; HT1080, Connective tissue Fibrosarcoma; 72 hours
# HCT15 = test: as above; assay type: cell-based; conditions: combination with anti-DR5 IgM Mab A; HCT15, Colorectal adenocarcinoma; 72 hours
# NUGC4 = test: as above; assay type: cell-based; conditions: combination with anti-DR5 IgM Mab A; NUGC4, Gastric Adenocarcinoma; 72 hours
# PANC1 = test: as above; assay type: cell-based; conditions: combination with anti-DR5 IgM Mab A; PANC1, Pancreas Ductal Adenocarcinoma, exocrine; 72 hours
# NCIN87 = test: as above; assay type: cell-based; conditions: combination with anti-DR5 IgM Mab A; NCIN87, Gastric Adenocarcinoma, tubular; 72 hours
# NCIH2228 = test: as above; assay type: cell-based; conditions: combination with anti-DR5 IgM Mab A; NCIH2228, Lung, Non-small cell; 72 hours
# ASPC1 = test: as above; assay type: cell-based; conditions: combination with anti-DR5 IgM Mab A; ASPC1, Pancreas Ductal adenocarcinoma; 72 hours
# NCIH508 = test: as above; assay type: cell-based; conditions: combination with anti-DR5 IgM Mab A; NCIH508, Colorectal Caecum Adenocarcinoma; 72 hours
# Karpas-422 = test: Cell Titer Glo viability, Mab A + chemotherapeutic/targeted agent (Example 9); assay type: cell-based; conditions: combination with Mab A; Karpas-422 (NHL); 72 hours
# WSU-DLCL2 = test: as above; assay type: cell-based; conditions: 72 hours; for Average Bliss score: combination with Mab A, WSU-DLCL2 (NHL)
# DOHH-2 = test: as above; conditions: combination with Mab A; DOHH-2 (NHL); 72 hours
# U-937 [2] = system: U-937
# OCI-LY7 = test: Cell Titer Glo viability, Mab A + chemotherapeutic/targeted agent (Example 9); conditions: combination with Mab A; OCI-LY7 (NHL); 72 hours
# [3] = system: primary human hepatocytes; test: as above; assay type: cell-based; conditions: 72 hours
# U-937 [4] = test: as above; conditions: 72 hours; for Average Bliss score: combination with Mab A, U-937 (NHL)
# Toledo = test: as above; assay type: cell-based; conditions: combination with Mab A; Toledo (NHL); 72 hours
# OVCAR-4 = test: Cell Titer Glo viability, Mab A + SMAC mimetics (Example 13); assay type: cell-based; conditions: SMAC mimetic in combination with Mab A
# Description: (§1) Synergy was determined as described in earlier examples. The average Bliss synergy scores for combinations of Mab A and SMAC mimetic on the various tumor cell lines are shown in Table 15.
# SW1353 = test: as above; assay type: cell-based; conditions: SMAC mimetic in combination with Mab A
# Description: as §1
# HCT 116 = test: as above; assay type: cell-based; conditions: SMAC mimetic in combination with Mab A
# Description: as §1
# HT 1080 = test: as above; assay type: cell-based; conditions: SMAC mimetic in combination with Mab A
# Description: as §1
# SK-MEL-5 = test: as above; assay type: cell-based; conditions: SMAC mimetic in combination with Mab A
# Description: as §1
# EBC-1 = test: as above; assay type: cell-based; conditions: SMAC mimetic in combination with Mab A
# Description: as §1
# [5] = system: DR5 agonist-resistant MDA-MB-231 cells; test: Cell Titer Glo viability, Mab A + SMAC mimetic on DR5 agonist-resistant tumor cells (Example 8); assay type: cell-based
# MDA-MB-231 tumor cells = test: Cell Titer Glo viability, Mab A + SMAC mimetic (Example 7); conditions: MDA-MB-231 cells; 72 hours
# Colo205 tumor cells = test: Colo205 subcutaneous tumor model in NCr nude mice (Examples 2-5, 14); assay type: in vivo; conditions: study termination on day 100; paclitaxel 25 mg/kg i.v. 5 doses, alone or with Mab A 5 mg/kg i.v. 7 doses
smiles,measurement,setting,value
"COc1cccc2c1C(=O)c1c(O)c3c(c(O)c1C2=O)C[C@@](O)(C(=O)CO)C[C@@H]3O[C@H]1C[C@H](N)[C@H](O)[C@H](C)O1 [doxorubicin, Doxorubicin]",Average Bliss score,[1],0.94
same,Average Bliss score,HT55,1.6
same,Average Bliss score,NCIH460,4
same,Average Bliss score,LOUNH91,12
same,Average Bliss score,MV411,7.1
same,Average Bliss score,MOLM13,5.2
same,Average Bliss score,BXPC3,1.5
same,Average Bliss score,SNU5,12
same,Average Bliss score,UMUC3,8.8
same,Average Bliss score,HT1080,1.5
same,Average Bliss score,HCT15,10
same,Average Bliss score,NUGC4,8.9
same,Average Bliss score,PANC1,7.3
same,Average Bliss score,NCIN87,12
same,Average Bliss score,NCIH2228,16
same,Average Bliss score,ASPC1,−0.63
same,Average Bliss score,NCIH508,1.3
"COc1cc([C@@H]2c3cc4c(cc3[C@@H](O[C@@H]3O[C@@H]5CO[C@@H](C)O[C@H]5[C@H](O)[C@H]3O)[C@H]3COC(=O)[C@H]23)OCO4)cc(OC)c1O [etoposide, Etoposide]",Average Bliss score,HT55,5.1
same,Average Bliss score,NCIH460,3.6
same,Average Bliss score,LOUNH91,16
same,Average Bliss score,BXPC3,2.2
same,Average Bliss score,SNU5,3.6
same,Average Bliss score,HT1080,3.6
same,Average Bliss score,HCT15,15
same,Average Bliss score,NUGC4,−2.3
same,Average Bliss score,PANC1,10
same,Average Bliss score,NCIN87,17
same,Average Bliss score,NCIH2228,14
same,Average Bliss score,ASPC1,5.2
same,Average Bliss score,NCIH508,−0.99
"COc1ccccc1-c1nccc(COc2ccccc2C[C@H](Oc2ncnc3sc(-c4ccc(F)cc4)c(-c4ccc(OCCN5CCN(C)CC5)c(Cl)c4C)c23)C(=O)O)n1 (atropisomer, axis not shown) [MIK665, MIK665/S-64315]",Average Bliss score,Karpas-422,3.7
same,single agent cytotoxicity (cell viability curves),WSU-DLCL2; WSU-DLCL2 cells,complete cytotoxicity
same,Average Bliss score,WSU-DLCL2,16
same,Average Bliss score,DOHH-2,3.1
same,single agent cytotoxicity (cell viability curves),U-937 [2],complete cytotoxicity
same,Average Bliss score,OCI-LY7,3.5
same,cytotoxicity in primary human hepatocytes,[3],causes cytotoxicity
same,Average Bliss score,U-937 [4],4.8
same,Average Bliss score,Toledo,6.7
CN[C@@H](C)C(=O)N[C@H]1CN(S(=O)(=O)c2cccc(S(=O)(=O)N3CC[C@H]4CC[C@@H](C(=O)NC(c5ccccc5)c5ccccc5)N4C(=O)[C@@H](NC(=O)[C@H](C)NC)C3)c2)CC[C@H]2CC[C@@H](C(=O)NC(c3ccccc3)c3ccccc3)N2C1=O [APG-1387],Average Bliss score,OVCAR-4,10
same,Average Bliss score,SW1353,−3
same,Average Bliss score,HCT 116,34
same,Average Bliss score,HT 1080,38
same,Average Bliss score,SK-MEL-5,7
same,Average Bliss score,EBC-1,47
CN[C@@H](C)C(=O)N[C@H]1CN(C(=O)CC(C)C)CC[C@H]2CC[C@@H](C(=O)NC(c3ccccc3)c3ccccc3)N2C1=O [Debio 1143],Average Bliss score,OVCAR-4,3
same,Average Bliss score,SW1353,−1
same,Average Bliss score,HCT 116,19
same,Average Bliss score,HT 1080,12
same,Average Bliss score,SK-MEL-5,4
same,Average Bliss score,EBC-1,23
"CC[C@H](Nc1ncnc2nc[nH]c12)c1nc2cccc(F)c2c(=O)n1-c1ccccc1 [idelalisib, Idelalisib]",Average Bliss score,Karpas-422,−3.2
same,Average Bliss score,WSU-DLCL2,−7.4
same,Average Bliss score,DOHH-2,−0.89
same,Average Bliss score,OCI-LY7,−1.8
same,Average Bliss score,U-937 [4],2.7
same,Average Bliss score,Toledo,−1.6
"CN[C@@H](C)C(=O)N[C@H](C(=O)N1CCC[C@H]1C(=O)Nc1snnc1-c1ccccc1)C1CCCCC1 [GDC-0152, GDC-0152/RG-7419]",single agent cytotoxicity (cell viability curves),[5],little to no cytotoxicity
same,single agent cytotoxicity (cell viability curves),MDA-MB-231 tumor cells,little to no cytotoxicity
"CC[C@]1(O)C[C@H]2CN(CCc3c([nH]c4ccccc34)[C@@](C(=O)OC)(c3cc4c(cc3OC)N(C=O)[C@H]3[C@@](O)(C(=O)OC)[C@H](OC(C)=O)[C@]5(CC)C=CCN6CC[C@]43[C@@H]65)C2)C1 [vincristine, Vincristine]",single agent cytotoxicity (cell viability curves),U-937 [4]; U-937 cells,strong cytotoxicity
C[C@@H]1CN(CC(=O)N2CC(C)(C)c3nc(CO)c(Cc4ccc(F)cc4)cc32)[C@@H](CN2CCOC[C@H]2C)CN1 [ASTX660],Average Bliss score,OVCAR-4,9
same,Average Bliss score,SW1353,−2
same,Average Bliss score,HCT 116,29
same,Average Bliss score,HT 1080,20
same,Average Bliss score,SK-MEL-5,11
same,Average Bliss score,EBC-1,17
"CC(=O)O[C@H]1C(=O)[C@@]2(C)[C@H]([C@H](OC(=O)c3ccccc3)[C@]3(O)C[C@H](OC(=O)[C@H](O)[C@@H](NC(=O)c4ccccc4)c4ccccc4)C(C)=C1C3(C)C)[C@]1(OC(C)=O)CO[C@@H]1C[C@@H]2O [paclitaxel, Paclitaxel]",Average Bliss score,[1],5.3
same,Average Bliss score,HT55,6.2
same,Average Bliss score,NCIH460,4.7
same,Average Bliss score,LOUNH91,9.7
same,Average Bliss score,BXPC3,3.8
same,Average Bliss score,SNU5,2.8
same,Average Bliss score,UMUC3,6.3
same,Average Bliss score,HT1080,2.7
same,Average Bliss score,HCT15,7.6
same,Average Bliss score,NUGC4,7
same,Average Bliss score,PANC1,15
same,Average Bliss score,NCIN87,13
same,Average Bliss score,NCIH2228,15
same,Average Bliss score,ASPC1,14
same,animals with no visible tumors (tumor-free),Colo205 tumor cells,2 out of 10
same,Average Bliss score,NCIH508,8.4
